Measured values reported in US4544665A, “1-Aryl-3-azabicyclo[3.2.0]heptanes” (American Cyanamid Company, priority 1983, dated 1985).

Experiments:
human platelet membranes = target: T1, human platelet membranes (Homo sapiens, UniProt P31645); test: Platelet imipramine binding ([3H]-imipramine); design: key to Platelet Imipramine Binding, Result: Active: A compound is considered active if greater than about 50% inhibition is achieved at a concentration of about 10 μM; conditions: 10 μM test compound, 60 min at 0° C.; for inhibition at 10 µM: [3H]imipramine
T1 construct: from tissue; host or cells: human platelets (membranes of sonicated platelet concentrates)
Method: The activity of the compounds of this invention as anti-depressant agents was also shown in the following test which measures the ability of a test compound to inhibit [^3 H]-imipramine binding to human platelet membranes. Human platelet concentrates were diluted about 1:20 with antiprotease containing buffer of the following composition:
Approximately 0.12M: sodium chloride
Approximately 0.05M: tris buffer
Approximately 0.005N: potassium chloride
Approximately 0.025: μg/ml aprotinin
Approximately 0.5: μg/ml pepstatin
Approximately 2×10^-5 N: bacitracin
Approximately 3 mN: ethylenediaminetetraacetic acid
Approximately 1 mN: ethyleneglycol-bis-(β-aminoethyl ether)-N,N'-tetracetic acid
Such buffer was kept at about pH 6.8 to prevent platelet release and aggregation. The diluted platelets were centrifuged at about 2,500 g and then resuspended in about 50 volumes of the same buffer. The cells were then ruptured with a Branson sonicator while the suspension was maintained in an ice bath. The ruptured cells were then centrifuged at about 18,000 g, resuspended in fresh buffer and recentrifuged at about 18,000 g. The resulting membranes were then diluted with the above antiprotease buffer, which had been adjusted to about pH 7.4, and to a protein concentration of about 3.0 mg/ml.
The test compounds were dissolved in dimethylsulfoxide at a concentration of about 50 mM and then diluted about 1:10 in either water, about 0.1M hydrochloric acid or about 0.1M sodium hydroxide. They were then diluted about 1:100 in buffer to about 50 μM, and about 50 μl of this stock solution was placed in triplicate test tubes. The tubes were cooled to about 0° C. and about 200 μl of the following mixture were added:
About 100 μl of 3 mg/ml membrane in buffer
About 50 μl of 15 nM[^3 H]imipramine in buffer
The tubes were incubated for about 60 minutes at about 0° C. Controls contain either buffer alone (100%) or about 10 μM final of desmethylimipramine (DMI). The samples were diluted with about 5 ml of buffer [0.12M-sodium chloride, 0.05M-tris buffer, 0.005M-potassium chloride (pH 7.4)], vacuum filtered and washed twice with about 5 ml of buffer. Radioactivity was measured in a liquid scintillation counter and the degree of binding was calculated.

mice [1] = test: Tetrabenazine-induced ptosis; format: in vivo; design: key to Tetrabenazine-Induced Ptosis, Result: Active: A compound is considered active if 5 or more of 10 mice respond; conditions: about 25 mg/kg i.p.; for Tetrabenazine-Induced Ptosis, Result: 30 min before tetrabenazine methanesulfonate about 39 mg/kg i.p., examined 30 min later; for Tetrabenazine-Induced Ptosis, mice responding of 10: responders (about 75% or greater opening of palpebral aperture)/tested
Method: Inhibition of tetrabenazine-induced ptosis is observed concomitantly with the inhibition of tetrabenazine-induced depression. Ptosis is defined as more than about 75% closure of palpebral aperture induced in animals by the administration of tetrabenazine methanesulfonate. The compounds were administered intraperitoneally at a dosage of about 25 mg per kilogram of body weight to groups of 10 mice. About thirty minutes later, tetrabenazine methanesulfonate was administered intraperitoneally to each mouse at a dose of about 39 mg/kg. About thirty minutes after the injection of tetrabenazine, the mice were placed on an observation disc and examined for approximately 10 seconds for inhibition of ptosis. […] A compound is considered active if 5 or more of 10 mice respond.

mice [2] = test: Tetrabenazine-induced depression (exploratory behavior); format: in vivo; design: key to Tetrabenazine-Induced Depression, Result: Active: A compound is considered active if 3 or more of the 10 mice are protected against the tetrabenazine-induced effects; conditions: about 25 mg/kg i.p., 30 min before tetrabenazine methanesulfonate about 39 mg/kg i.p.; for Tetrabenazine-Induced Depression, mice protected of 10: protected/tested; for Tetrabenazine-Induced Depression, Result: tested 30 min later
Method: The compounds of this invention are useful as anti-depressant agents in warm-blooded animals. The anti-depressant properties of these compounds were tested by measuring their ability to counteract depression induced in such animals by the administration of tetrabenazine methanesulfonate. Each test compound was administered intraperitoneally to 10 mice at a dose of about 25 mg/kg of body weight. Approximately thirty minutes later, tetrabenazine methanesulfonate was administered intraperitoneally to each mouse at a dose of about 39 mg/kg of body weight, which dose is known to depress markedly the exploratory behavior of normal mice. Approximately thirty minutes later, the mice were tested for their exploratory behavior as described by E. Greenblatt and A. C. Osterberg, Toxicology and Applied Pharmacology, 7: 556-578 (1965). A compound is considered active if 3 or more of the 10 mice are protected against the tetrabenazine-induced effects.

T1 sequence (P31645 whole entry): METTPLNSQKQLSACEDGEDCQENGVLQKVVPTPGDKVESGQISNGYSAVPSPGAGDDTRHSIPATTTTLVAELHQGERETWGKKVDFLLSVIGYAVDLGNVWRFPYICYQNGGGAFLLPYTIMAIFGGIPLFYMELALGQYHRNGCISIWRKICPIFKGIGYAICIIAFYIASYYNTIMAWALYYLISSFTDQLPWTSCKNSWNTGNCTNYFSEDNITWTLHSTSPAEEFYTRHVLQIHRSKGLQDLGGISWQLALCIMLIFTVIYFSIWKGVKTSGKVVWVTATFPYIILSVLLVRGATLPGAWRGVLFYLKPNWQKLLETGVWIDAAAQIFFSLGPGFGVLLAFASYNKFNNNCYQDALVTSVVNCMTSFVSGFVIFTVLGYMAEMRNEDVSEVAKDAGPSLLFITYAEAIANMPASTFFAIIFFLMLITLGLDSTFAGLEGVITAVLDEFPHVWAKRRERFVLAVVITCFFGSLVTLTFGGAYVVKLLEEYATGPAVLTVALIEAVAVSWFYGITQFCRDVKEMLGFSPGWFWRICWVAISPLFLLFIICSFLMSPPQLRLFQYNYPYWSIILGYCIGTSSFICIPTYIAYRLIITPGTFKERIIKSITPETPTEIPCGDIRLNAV

SMILES	Platelet Imipramine Binding, Result (human platelet membranes)	inhibition at 10 µM (human platelet membranes)	Tetrabenazine-Induced Ptosis, Result (mice [1])	Tetrabenazine-Induced Ptosis, mice responding of 10 (mice [1])	Tetrabenazine-Induced Depression, mice protected of 10 (mice [2])	Tetrabenazine-Induced Depression, Result (mice [2])
CCO[C@@H]1C[C@@H]2CN(C)C[C@@]21c1cccc(OC)c1 (relative stereo) [7α-Ethoxy-1β-(m-methoxyphenyl)-3-methyl-3-azabicyclo[3.2.0]heptane]	Active	92%				
CCO[C@H]1C[C@@H]2CN(C)C[C@@]21c1cccc(OC)c1 (relative stereo) [7β-Ethoxy-1β-(m-methoxyphenyl)-3-methyl-3-azabicyclo[3.2.0]heptan]	Active	94%	Active	9/10	3/10	Active
COc1cccc(C23CCC2CN(C)C3)c1.O.O=C(O)/C=C/C(=O)O (centres unmarked) [1-(m-Methoxyphenyl)-3-methyl-3-azabicyclo[3.2.0]heptane, and fumarate salt monohydrate]	Active	99.8%				
Cc1ccc(C23CCC2CN(C)C3)cc1.O=C(O)/C=C/C(=O)O (centres unmarked) [1-(p-Methylphenyl)-3-methyl-3-azabicyclo[3.2.0]heptane, and fumarate salt]			Active	10/10	5/10	Active
